Results published in US12186311B2, “Antiproliferative compounds and second active agents for combined use” (Celgene Corporation, priority 2019, dated 2025).

Legend:
H929 cell line = experiment: Thymidine incorporation, combination with Compound 2, combination index (Calcusyn), H929; format: cell-based; details: H929, 3 days
Method: H929 cell line was treated with various doses of Compound 2 in combination with increasing doses of an EZH2 inhibitor UNC1999 for 3 days. Cell proliferation was analyzed using thymidine incorporation assays. Combination index values were calculated by Calcusyn and values below 10^0 represented the synergy between the combination treatments. The results are shown in FIG. 5A (H929) and FIG. 5B (H929 combination index).

[1] = tested on: non-selective α1 adrenergic receptor in rat cerebral cortex; experiment: α1 adrenergic receptor binding at 10 μM ([3H]prazosin); details: inhibition of control [3H]prazosin binding
Method: (§1) α1 Adrenergic and Dopamine D2 Receptors. Methods: Binding and functional assays for al adrenergic and dopamine D2 receptors were performed by Eurofins Cerep according to their methods.
α1 Adrenergic Receptor. Binding at 10 μM. The binding assay evaluated the affinity of test article for the non-selective al adrenergic receptor in rat cerebral cortex. Membrane homogenates of cerebral cortex were incubated in duplicate for 60 minutes at room temperature with 0.25 nM [^3H]prazosin in the absence or presence of test articles at 10 μM. After the incubation period, samples were filtered through glass fiber filters, the filters dried and then counted for radioactivity using a scintillation counter. Results are expressed as mean percent inhibition of control radioligand binding.

[2] = target: T1, dopamine D2S receptor in transfected HEK-293 cells (Homo sapiens, UniProt P14416); experiment: Dopamine D2S receptor binding at 10 μM; details: read-out: Dopamine D2S % Inh. (@10 uM)
T1 construct: host or cells: HEK-293
T1 sequence (P14416 1-414 isoform P14416-2): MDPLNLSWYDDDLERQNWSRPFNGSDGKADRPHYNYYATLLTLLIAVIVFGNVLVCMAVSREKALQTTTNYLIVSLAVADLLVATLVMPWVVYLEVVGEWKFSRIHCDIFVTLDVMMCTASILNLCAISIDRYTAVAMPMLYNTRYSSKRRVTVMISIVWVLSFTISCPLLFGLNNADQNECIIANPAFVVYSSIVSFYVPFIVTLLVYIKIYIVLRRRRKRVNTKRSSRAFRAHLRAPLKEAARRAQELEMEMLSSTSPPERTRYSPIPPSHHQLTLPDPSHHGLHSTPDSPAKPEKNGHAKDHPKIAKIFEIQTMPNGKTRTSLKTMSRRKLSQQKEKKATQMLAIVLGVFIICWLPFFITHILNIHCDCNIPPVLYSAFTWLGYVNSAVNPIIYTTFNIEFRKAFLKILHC
Method: as §1
Dopamine D2 Receptor. Binding at 10 μM. The binding assay evaluated the affinity of test articles for the dopamine D2 receptor in transfected human embryonic kidney (HEK)-293 cells. For determining the binding in the D2s receptor assay, test article was incubated with 0.3 nM [^3H] methylspiperone or 1 nM [^3H] 7-hydroxy-2-N,N-dipropylaminotetralin (7-OH-DPAT). [^3H] Methylspiperone at 0.3 nM also was used as control ligand in the D2L binding assay. Cell membrane homogenates were incubated in duplicate at room temperature for 60 minutes with ligand in the absence or presence of test articles at 10 μM. After the incubation period, samples were filtered through glass fiber filters, the filters dried and then counted for radioactivity using a scintillation counter. Results are expressed as mean percent inhibition of control radioligand binding.

OPM-2.P10 cells = experiment: 7 day combination assay (Annexin V/7-AAD flow cytometry, fractional product method), OPM.2-P10; format: cell-based; details: OPM-2.P10, 7 day assay
Method: (§2) Additional second agents, including DNA methyltransferase inhibitors, EZH2 inhibitors, DOT1L inhibitors, and BET inhibitors were selected for combination studies with Compound 2 in relapsed refractory multiple myeloma. Five MM cell lines with acquired or inherent resistance to lenalidomide or pomalidomide were included in the studies (OPM.2-P10, H929-1051, KMS12BM PR, L363, and JJN3). The effect of Compound 2 in combination with these second agents on MM cells were assessed in a 7 day in vitro assay. The MM cells were seeded at densities according to the growth rate of each cell line with the aim of achieving 50-100K cells by Day 7. The assay was performed in a 96-well plate. All MM cell lines were cultured in an incubator at 37° C. with 5% CO2 using the indicated cell culture media containing 1×Penicillin-Streptomycin. The MM cells were primed for 3 days with these second agents at the single agent IC50 value. […] Compound 2 was added to the cells at a dose range of 30 μM-0.00018 μM, depending on the cell line, for a 8 point dose response curve. The cells were incubated at 37° C. for an additional 4 days. At the end of the 7 day treatment, the MM cells were stained with Annexin V and 7-AAD and analyzed on a flow cytometer. Live MM cells were identified as Annexin V and 7-AAD double negative cells. […]

H929-1051 cells = experiment: 7 day combination assay (Annexin V/7-AAD flow cytometry, fractional product method), H929-1051; format: cell-based; details: H929-1051, 7 day assay
Method: as §2

[3] = tested on: acute myeloid leukemia (AML); details: administered alone; cited from earlier work
[4] = tested on: K12PE-PR (pomalidomide resistant) cell line; experiment: Cell proliferation, combination with Compound 2, combination index (Calcusyn), K12PE-PR; format: cell-based; details: 3 days
Method: (§3) K12PE (parental) and K12PE-PR (pomalidomide resistant) cell lines were treated with various doses of Compound 2 in combination with increasing doses of a BRD4 inhibitor JQ1 for 3 days. Cell proliferation was analyzed using thymidine incorporation assays. Combination index values were calculated by Calcusyn and values below 10^0 represented the synergy between the combination treatments. The results are shown in FIG. 3A (K12PE), FIG. 3B (K12PE combination index), FIG. 3C (K12PE-PR), and FIG. 3D (K12PE-PR combination index), respectively.
(§4) AMO1, AMO1-PR (pomalidomide resistant), K12PE and K12PE-PR (pomalidomide resistant) cell lines were treated with increasing doses of Compound 2 in combination with an AURKB inhibitor (AZD 1152). Changes in cell proliferation were studied in response to monotherapy and combinations at Day 3 post treatment. Combination index values were calculated by Calcusyn and values below […] represented the synergy between the combination treatments. AUKKB is one of the key target gene of MDMS8 (molecularly defined myeloma segment 8), a high risk cluster identified from myeloma genome project. The results are shown in FIG. 8A (AMO1 combination index), FIG. 8B (K12PE combination index), FIG. 8C (AMO1-PR combination index), and FIG. 8D (K12PE-PR combination index), respectively. […]

[5] = tested on: K12PE (parental) cell line; experiment: Cell proliferation, combination with Compound 2, combination index (Calcusyn), K12PE; format: cell-based; details: 3 days
Method: as §3, §4

[6] = tested on: AMO1 (parental) cell line; experiment: Cell proliferation, combination with Compound 2, combination index (Calcusyn), AMO1; format: cell-based; details: AMO1, 3 days
Method: (§5) AMO1 (parental) and AMO1-PR (pomalidomide resistant) cell lines were treated with various doses of Compound 2 in combination with increasing doses of an MEK inhibitor trametinib for 3 days. Cell proliferation was analyzed using thymidine incorporation assays. Combination index values were calculated by Calcusyn and values below 10^0 represented the synergy between the combination treatments. The results are shown in FIG. 4A (AMO1), FIG. 4B (AMO1 combination index), FIG. 4C (AMO1-PR), and FIG. 4D (AMO1-PR combination index), respectively.
(§6) AMO1 and AMO1-PR (pomalidomide resistant) cell lines were treated with increasing doses of Compound 2 in combination with a PLK1 inhibitor (BI2536). Changes in cell proliferation were studied in response to monotherapy and combinations at Day 3 post treatment. Combination Index was calculated using Calcusyn based method. Combination index values were calculated by Calcusyn and values below 10^0 represented the synergy between the combination treatments. PLK1 is one of the key target gene of MDMS8 (molecularly defined myeloma segment 8), a high risk cluster identified from myeloma genome project. The results are shown in FIG. 6A (AMO1), FIG. 6B (AMO1 combination index), FIG. 6C (AMO1-PR), and FIG. 6D (AMO1-PR combination index), respectively. Inhibition of MDMS8 target gene PLK1 with Compound 2 is synergistic in AMO1 and AMO1-PR cells.
(§7) AMO1 and AMO1-PR (pomalidomide resistant) cell lines were treated with increasing doses of Compound 2 in combination with an NEK2 inhibitor (JH295). Changes in cell proliferation were studied in response to monotherapy and combinations at Day 3 post treatment. Combination index values were calculated by Calcusyn and values below 10^0 represented the synergy between the combination treatments. NEK2 is one of the key target gene of MDMS8 (molecularly defined myeloma segment 8), a high risk cluster identified from myeloma genome project. The results are shown in FIG. 7A (AMO1 combination index) and FIG. 7B (AMO1-PR combination index), respectively. Inhibition of MDMS8 target gene NEK2 with Compound 2 is synergistic in AMO1 and AMO1-PR cells.
(§8) AMO1, AMO1-PR (pomalidomide resistant), K12PE and K12PE-PR (pomalidomide resistant) cell lines were treated with increasing doses of Compound 2 in combination with an AURKB inhibitor (AZD 1152). […] Combination index values were calculated by Calcusyn and values below […] represented the synergy between the combination treatments. […]
(§9) AMO1, AMO1-PR (pomalidomide resistant) cell lines were treated with increasing doses of Compound 2 in combination with a BIRC5 inhibitor (YM155). […] Combination index values were calculated by Calcusyn and values below 10^0 represented the synergy between the combination treatments. […]

[7] = tested on: AMO1-PR (pomalidomide resistant) cell line; experiment: Cell proliferation, combination with Compound 2, combination index (Calcusyn), AMO1-PR; format: cell-based; details: 3 days
Method: as §5, §6, §7, §8, §9

For `CCCc1cc(C)[nH]c(=O)c1CNC(=O)c1cc(-c2ccc(N3CCN(C(C)C)CC3)nc2)cc2c1cnn2C(C)C` [UNC1999, 1-Isopropyl-6-(6-(4-isopropylpiperazin-1-yl)pyridin-3-yl)-N-((6-methyl-2-oxo-4-propyl-1,2-dihydropyridin-3-yl)methyl)-1H-indazole-4-carboxamide], the “synergy with Compound 2 (combination index)” value (from here on “synergy … (combination index)”) (H929 cell line) was “synergistic activity with Compound 2”.
In the case of `N#Cc1ccc(N2CCN(Cc3ccc(COc4cccc5c4CN(C4CCC(=O)NC4=O)C5=O)cc3)CC2)c(F)c1` (racemic) [Compound 1, 4-(4-(4-(((2-(2,6-dioxopiperidin-3-yl)-1-oxoisoindolin-4-yl)oxy)methyl)benzyl)piperazin-1-yl)-3-fluorobenzonitrile], the “Adrenergic α1 % Inh. (@10 uM)” value [1] is reported as 67% and the inhibition at 10 µM [2] is reported as 55%.
For `Cn1cc(-c2cc(S(C)(=O)=O)ccc2OCC2CC2)c2ccccc2c1=O` [Compound C, 4-[2-(cyclopropylmethoxy)-5-(methanesulfonyl)phenyl]-2-methylisoquinolin-1(2H)-one], the “synergy in combination with Compound 2” value (OPM-2.P10 cells) was “significant synergy” and the “synergy in combination with Compound 2” value (H929-1051 cells) was “significant synergy”.
For “CT-011: anti-PD-1 antibody, a humanized antibody”, the “response in treating acute myeloid leukemia (AML) at relapse” value [3] is given as “failed to show response”.
In the case of `Cc1sc2c(c1C)C(c1ccc(Cl)cc1)=N[C@@H](CC(=O)OC(C)(C)C)c1nnc(C)n1-2` [JQ1, (S)-tert-butyl 2-(4-(4-chlorophenyl)-2,3,9-trimethyl-6H-thieno[3,2-f][1,2,4]triazolo[4,3-a][1,4]diazepin-6-yl)acetate], the “synergy … (combination index)” value [4] is reported as “synergistic activity with Compound 2” and the “synergy … (combination index)” value [5] is reported as “synergistic activity with Compound 2”.
With `CCN(CCCOc1ccc2c(Nc3cc(CC(=O)Nc4cccc(F)c4)[nH]n3)ncnc2c1)CCOP(=O)(O)O` [AZD 1152] the “synergy … (combination index)” value [6] was “synergistic”, the “synergy … (combination index)” value [4] was “synergistic” and the “synergy … (combination index)” value [7] was “synergistic”. For the same molecule, the “synergy … (combination index)” value [5] was “synergistic”.
With `O=C1CCC(N2Cc3c(OCc4ccc(CN5CCN(c6ccc(F)cc6F)CC5)cc4)cccc3C2=O)C(=O)N1` (racemic) [Compound A, 3-(4-((4-((4-(2,4-difluorophenyl)piperazin-1-yl)methyl)benzyl)oxy)-1-oxoisoindolin-2-yl)piperidine-2,6-dione] the “Adrenergic α1 % Inh. (@10 uM)” value [1] was 102% and the inhibition at 10 µM [2] was 99%.
In the case of `N#Cc1ccc(N2CCN(Cc3ccc(COc4cccc5c4CN([C@H]4CCC(=O)NC4=O)C5=O)cc3)CC2)c(F)c1` [Compound 2, (S)-4-(4-(4-(((2-(2,6-dioxopiperidin-3-yl)-1-oxoisoindolin-4-yl)oxy)methyl)benzyl)piperazin-1-yl)-3-fluorobenzonitrile], the “Adrenergic α1 % Inh. (@10 uM)” value [1] is reported as 62% and the inhibition at 10 µM [2] is reported as 52%.
